Reference: US11826373B2, “Methods for treatment of diseases” (Galera Labs, LLC, priority 2011, dated 2023)
Read-outs that look alike come from different tables or passages of the source.

Key:
[1] = Human Phase 1 pharmacokinetics of GC4403; assay type: in vivo; details: both sexes, plasma; for AUC(0-t): read-out: AUC0-24 h
Experimental: In a Phase 1 randomized, double-blind, placebo-controlled single rising dose safety, tolerability and pharmacokinetics study, 54 healthy male and female subjects were dosed from 2.2 to 25 mg of GC4403 administered intravenously over 30 minutes. Disposition of GC4403 is multi-exponential and follows linear pharmacokinetics with generally proportional increases in AUC and Cmax with increasing dose over the dose ranges studied. […] GC4403 is excreted unchanged in the urine and accounts for approximately 9 to 17% of the dose administered. No significant cardiovascular or vital sign effects, no significant physical examination abnormalities, and no significant abnormalities in routine clinical laboratory assessments were observed. Facial tingling, generalized tingling, paraesthesias and facial warmth were reported in a dose responsive manner, occurring at the 16.7 and 25 mg GC4403 doses.
(§1) As part of the conduct of the Phase 1a clinical studies for GC4403 and GC4419 described in the Examples herein, plasma samples were collected for measuring the concentration of parent compounds (GC4403 and GC4419) after intravenous infusion. Table 3 illustrates the pharmacokinetic parameter, area under the curve (AUC), representing the total exposure of the subject to the drugs over time.

[2] = Activity toward hydrogen peroxide; assay type: biochemical
healthy subjects = assay: Human Phase 1 single rising dose safety and tolerability of GC4419; assay type: in vivo
Experimental: (§2) A human clinical trial entitled, “A Double-Blind, Placebo-Controlled, Single Rising Dose Study to Evaluate the Safety and Tolerability and Determine the Pharmacokinetics of M40419 Administered as a I5-Minute Intravenous Infusion in Healthy Subjects,” was conducted on 54 subjects. This was a single center, randomized, placebo-controlled, sequential panel, single dose safety, tolerability, and pharmacokinetic study of GC4419 administered as a 75-mL IV infusion over 15 minutes in escalating doses of 10 mg, 15 mg, 22 mg, 33 mg, 50 mg, 75 mg, and 112 mg. The study consisted of two phases: the first phase was a dose escalation with six subjects (four active and two placebo) in each cohort to determine a Maximum Tolerated Dose (MTD); the second phase was a repeat of the MTD dose in 12 subjects (eight active drug and four placebo) to confirm the MTD or safety of highest dose tested. The study population was comprised of 54 healthy male and female subjects (36 males, 18 females) between the ages of 18 and 50 years considered eligible on the basis of inclusion and exclusion criteria. There were four active and two placebo subjects for each dose level in the escalating dose phase of the study, and eight active and four placebo subjects for the confirmation of MTD phase.
All subjects receiving a dose of study medication were evaluated for safety. The safety of the drug product was assessed based on: treatment-emergent adverse events (TEAEs), clinical laboratory evaluations, vital signs, 12-lead electrocardiograms (ECGs) and standard ECG parameters including PR, QRS, QT, and QTc intervals.

[3] = Rat GC4419 14-day IV study; assay type: in vivo; details: both sexes, rat, in vivo; rats, 15 minute IV infusion, 14 days
Experimental: (§3) GC4419 was evaluated in a 14-day GLP study in rats. GC4419 was administered to rats (10/sex/group) as 15 minute IV injections at dosages of 0, 5, 10 or 20 (15) mg/kg/day for 14 days. The control group received vehicle (sodium citrate in normal saline). Due to mortality at 20 mg/kg/day, the high dose group was decreased to 15 mg/kg/day on Day 3. Evaluations for compound-related effects were based on clinical observations, body weight, food consumption, hematology and clinical chemistry parameters, functional observation battery, organ weights and gross and microscopic postmortem examinations. […] There were no compound-related changes in organ weights or macroscopic or microscopic pathology. Based on the results of this study the NOAEL for GC4419 when administered to rats for 14 days as a 15 minute IV infusion was 15 mg/kg/day.

Rats = assay: Rat GC4419 14-day IV study; assay type: in vivo; details: 20 mg/kg, Days 1 or 2
Experimental: as §3

[4] = 14-day repeat dose toxicity of GC4419 in dog; assay type: in vivo, beagle dogs; details: both sexes, dog, in vivo, beagle dogs, IV over 15 minutes once daily
Experimental: (§4) GC4419 was evaluated in a GLP study in beagle dogs. GC4419 was administered intravenously (IV) over 15 minutes, once daily, to beagle dogs for 14 consecutive days. GC4419 was administered IV into the cephalic vein (4 mL/kg) to 3 groups of dogs (4 animals/sex/group) at dosages of 2.5, 5.0 and 7.5 mg/kg with a fourth group receiving vehicle (26 mM sodium bicarbonate in normal saline). […] All animals recovered from these effects. There were no test-article-related differences in group mean hematology, coagulation, or clinical chemistry parameters or urinalysis parameters after 14 days of treatment in any dosing group. At necropsy on day 15, there were neither test-article related gross macroscopic findings nor test-article-related differences in organ weight. No test-article-related histopathological lesions were present.

beagle dogs = assay: 14-day repeat dose toxicity of GC4419 in dog; assay type: in vivo; details: beagle dogs, 2.5, 5.0 and 7.5 mg/kg IV over 15 minutes, 14 days
Experimental: as §4

[5] = test system: radiation-induced oral mucositis; assay: Hamster model of radiation-induced oral mucositis; assay type: in vivo, Male Syrian golden hamsters; details: all doses (3-30 mg/kg) administered prior to irradiation
Experimental: GC4403 and GC4419 were studied in a hamster model of oral mucositis (OM). Irradiation of the hamster cheek pouch induces lesions that are histologically similar to OM that which occurs clinically, and develop and resolve at a similar rate to radiation-induced OM in humans. […] The animals received 40 Gy radiation localized to the everted cheek pouch and were evaluated every second day for the development of inflammation at the radiation site. Inflammation was rated on a scale of 0 (normal) to 5 (total ulceration of pouch) by a trained observer, blinded to the treatment protocol.

[6] = Human Phase 1 pharmacokinetics of GC4419; details: both sexes, in vivo
Experimental: as §2, §1

[7] = single intravenous infusion over 15 minutes, healthy subjects

## [Cl][Mn-5]1234([Cl])[n+]5c6cccc5C[NH+]1[C@@H]1CCCC[C@H]1[NH+]2CC[NH+]3[C@@H]1CCCC[C@H]1[NH+]4C6 (some centres unmarked) [GC4403]
[1]; 2.2 mg IV over 30 minutes
  AUC(0-t): 184 ng·h/mL
[1]; 3.3 mg IV over 30 minutes
  AUC(0-t): 310 ng·h/mL
[1]; 4.9 mg IV over 30 minutes
  AUC(0-t): 453 ng·h/mL
[1]; 7.4 mg IV over 30 minutes
  AUC(0-t): 595 ng·h/mL
[1]; 11.1 mg IV over 30 minutes
  AUC(0-t): 1050 ng·h/mL
[1]; 16.7 mg IV over 30 minutes
  AUC(0-t): 1510 ng·h/mL
[1]; 25 mg IV over 30 minutes
  AUC(0-t): 2560 ng·h/mL
[1]; IV over 30 minutes, read-out: terminal elimination half-life (converted)
  half-life: ~1.5 h

## [Cl][Mn-5]1234([Cl])[n+]5c6cccc5C[NH+]1[C@H]1CCCC[C@@H]1[NH+]2CC[NH+]3[C@H]1CCCC[C@@H]1[NH+]4C6 (some centres unmarked) [GC4419]
[2]
  activity toward hydrogen peroxide: no detectable activity
Healthy subjects; 30 of 36 subjects who received trial material, 10-112 mg
  subjects who experienced at least one TEAE: 83.3%
Healthy subjects; healthy subjects
  tolerability of single doses up to 112 mg: no serious adverse events
  tolerability of single intravenous doses from 10 mg to 50 mg: safe and well tolerated with no adverse events
Healthy subjects; [7]
  MTD initially defined in the dose escalation phase: 75 mg
  maximum tolerated dose (MTD), final: 50 mg
[3]
  NOAEL at 14 days: 15 mg/kg/day
Rats
  mortality: Several rats died
[4]
  NOAEL at 14 days: 5 mg/kg/day
Beagle dogs
  mortality: No animals died
[5]
  development of grade 3 or greater OM: prevented the development of grade 3 or greater OM
[6]; 10 mg IV over 15 minutes
  AUC(0-inf): 741 ng·h/mL
[6]; 15 mg IV over 15 minutes
  AUC(0-inf): 1300 ng·h/mL
[6]; 22 mg IV over 15 minutes
  AUC(0-inf): 2000 ng·h/mL
[6]; 33 mg IV over 15 minutes
  AUC(0-inf): 3190 ng·h/mL
[6]; 50 mg IV over 15 minutes
  AUC(0-inf): 4560 ng·h/mL
[6]; 75 mg IV over 15 minutes
  AUC(0-inf): 6490 ng·h/mL
[6]; 112 mg IV over 15 minutes
  AUC(0-inf): 10400 ng·h/mL
